Usually melting point stands for the temperature, or range, at which the solid turns liquid. Molecule `Fc1cccc(F)c1-c1cnnc(-c2ccc(-c3ccc(OC(F)(F)F)cc3)cc2)n1` [Example 1.6, 5-(2,6-Difluorophenyl)-3-(4′-trifluoromethoxybiphenyl-4-yl)-[1,2,4]triazine] yielded a melting point of 159 to 160 °C.
